# In patent US7074761B1, “Peptides and production and use thereof” (Takeda Chemical Ind., Ltd., priority 1996, dated 2006):
# Where a SMILES comes first, the peptide text is derived from it. Bridges are numbered along the chain shown (N, C = ends).
# Columns and labels:
# [1] = biological target: T1, human SSTR1 (Homo sapiens, UniProt P30872); experiment: [125I]-somatostatin binding inhibition, SSTR1 CHO cell membrane fraction; conditions: 25° C., 60 minutes
# T1 construct: expressed in transfected cells; host or cells: CHO(dhfr-) cells, clone SSTR1-8-3, plasmid pA-1-11-SSTR1 (vector pAKKO-111)
# Experimental: CHO(dhfr^−) cells (1×10^6 cells) were cultured on HAM F12 medium containing 10% fetal bovine serum in a dish with a diameter of 8 cm for 24 hours. Into these cells was introduced 10 μg of the human SSTR1 cDNA expression plasmid pA-1-11-SSTR1 obtained as described above in (2) by the calcium phosphate method (Cell Phect Transfection Kit; Pharmacia). At 24 hours after transfection, the medium was exchanged for Dulbecco's modified Eagle's medium (DMEM) containing 10% dialyzed fetal bovine serum, and cells forming a colony on this medium (namely DHFR^+ cells) were selected. Further, the cells selected were treated by the limiting dilution method for cloning from a single cell, and the somatostatin receptor protein activity was measured in the following manner. […] The [^125I] on the filter paper was measured with a γ counter. […]
# The membrane fractions prepared in Reference Example 6 were each diluted to 3 μg/ml with assay buffer. […] After filtration, the radioactivity of [^125I]-somatostatin remaining on the filter paper was measured. For each test substance, the binding inhibition percentage (%) was calculated according to the formula: PBM=(B−NSB)/(B0−NSB)×100 (where PBM: percent maximum binding; B: radioactivity when the test sample is added; B0: maximum bound radioactivity; NSB: non-specifically bound radioactivity). […]
# [2] = biological target: T2, human SSTR4 (Homo sapiens, UniProt P31391); experiment: cAMP accumulation inhibiting activity in SSTR4 expressing CHO cells (forskolin stimulated); type: cell-based; conditions: forskolin 10 μM, CHO cells SSTR4-1-2; read-out: ED50, inhibition of intracellular cAMP accumulation, SSTR4
# T2 construct: expressed in transfected cells; host or cells: CHO(dhfr-) cells, clone SSTR4-1-2, plasmid pA-1-11-SSTR4 (vector pAKKO-111)
# Experimental: (§1) For measuring the intracellular accumulations of cyclic adenosine 3′,5′-monophosphate (cAMP), the human somatostatin receptor expressing cell lines SSTR2-HS5-9, SSTR3-15-19, SSTR4-1-2 and SSTR5-32-4 respectively described in Reference Example 2 (3), Reference Example 3 (3), Reference Example 4 (3) and Reference Example 5 (3) were multiplied on 24-well plates until confluency. Said cells were washed with two 1-ml portions of medium A [Dulbecco-'s modified Eagle's medium (DMEM), 20 mM 2-[4-(2-hydroxyethyl)-1-piperazinyl]ethanesulfonic acid (HEPES) (pH. 7.5), 0.2% BSA, 0.2 mM 3-isobutyl-1-methylxanthine (IBMX)] and then 400 μl of medium A was added to each well and incubation was carried out at 37° C. for 1 hour. To each well were added 50 μl of a hCS-15 or hCS-17 solution (each diluted to a concentration 10 times the final concentration with medium A) and 50 μl of a forskolin solution (final concentration: 10 μM), and incubation was carried out at 37° C. for 30 minutes. The cells were washed with two 1-ml portions of medium A and then 500 μl of medium A and 100 μL of 20% aqueous perchloric acid solution were added to each well, followed by standing at 4° C. for 20 minutes for cell lysis. […] The amount of cAMP contained in this extract was determined using an Amersham's kit (cAMP EIA system).
# [3] = biological target: T3, human SSTR5 (Homo sapiens, UniProt P35346); experiment: cAMP accumulation inhibiting activity in SSTR5 expressing CHO cells (forskolin stimulated); type: cell-based; conditions: forskolin 10 μM, CHO cells SSTR5-32-4; read-out: ED50, inhibition of intracellular cAMP accumulation, SSTR5
# T3 construct: expressed in transfected cells; host or cells: CHO(dhfr-) cells, clone SSTR5-32-4, plasmid pA-1-11-SSTR5 (vector pAKKO-111)
# Experimental: as §1
# T1 sequence (P30872 whole entry): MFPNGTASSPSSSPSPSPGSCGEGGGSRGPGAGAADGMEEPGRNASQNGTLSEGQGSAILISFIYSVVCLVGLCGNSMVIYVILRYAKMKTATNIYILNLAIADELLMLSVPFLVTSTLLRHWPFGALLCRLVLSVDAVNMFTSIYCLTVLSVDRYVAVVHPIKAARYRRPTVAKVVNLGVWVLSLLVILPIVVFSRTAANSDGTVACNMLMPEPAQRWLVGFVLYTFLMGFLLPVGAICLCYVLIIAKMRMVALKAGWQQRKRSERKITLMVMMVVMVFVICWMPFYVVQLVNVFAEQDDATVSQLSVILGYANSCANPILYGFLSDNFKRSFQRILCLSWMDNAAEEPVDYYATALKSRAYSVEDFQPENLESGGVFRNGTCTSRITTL
# T3 sequence (P35346 whole entry): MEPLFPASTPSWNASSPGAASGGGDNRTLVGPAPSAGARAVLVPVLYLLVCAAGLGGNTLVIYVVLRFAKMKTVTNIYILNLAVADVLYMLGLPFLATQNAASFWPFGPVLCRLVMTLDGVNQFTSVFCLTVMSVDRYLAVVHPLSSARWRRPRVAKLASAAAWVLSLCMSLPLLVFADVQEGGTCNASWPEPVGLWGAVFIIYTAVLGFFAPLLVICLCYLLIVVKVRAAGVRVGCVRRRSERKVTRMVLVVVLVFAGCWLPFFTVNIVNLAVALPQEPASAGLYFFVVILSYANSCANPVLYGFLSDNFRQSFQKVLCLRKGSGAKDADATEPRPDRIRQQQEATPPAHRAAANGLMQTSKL
# T2 sequence (P31391 whole entry): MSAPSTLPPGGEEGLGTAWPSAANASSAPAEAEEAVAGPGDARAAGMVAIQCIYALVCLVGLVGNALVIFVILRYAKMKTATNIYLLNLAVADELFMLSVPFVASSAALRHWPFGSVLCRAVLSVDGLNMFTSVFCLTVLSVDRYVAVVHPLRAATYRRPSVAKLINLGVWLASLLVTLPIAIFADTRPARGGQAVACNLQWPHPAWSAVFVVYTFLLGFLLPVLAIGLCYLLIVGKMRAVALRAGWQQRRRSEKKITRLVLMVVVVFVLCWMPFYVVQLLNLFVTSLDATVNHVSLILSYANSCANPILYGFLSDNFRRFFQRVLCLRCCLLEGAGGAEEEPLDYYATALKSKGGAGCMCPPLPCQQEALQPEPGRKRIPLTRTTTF
IC50 [1] [nM],EC50 [2] [nM],EC50 [3] [nM],SMILES
7,0.2,0.2,CSCC[C@H](N)C(=O)N1CCC[C@H]1C(=O)N[C@H]1CSSC[C@@H](C(=O)N[C@@H](CCCCN)C(=O)O)NC(=O)[C@H](CO)NC(=O)[C@H](CO)NC(=O)[C@H](Cc2ccccc2)NC(=O)[C@H]([C@@H](C)O)NC(=O)[C@H](CCCCN)NC(=O)[C@H](Cc2c[nH]c3ccccc23)NC(=O)[C@H](Cc2ccccc2)NC(=O)[C@H](Cc2ccccc2)NC(=O)[C@H](CC(N)=O)NC(=O)[C@H](CCCNC(=N)N)NC1=O [hCS-15] (H-MPCRNFFWKTFSSCK-OH; disulfide 3-14; N-terminus and C-terminus assumed)
7,–,0.2,CSCC[C@H](NC(=O)[C@H](CCCNC(=N)N)NC(=O)[C@@H](N)CC(=O)O)C(=O)N1CCC[C@H]1C(=O)N[C@H]1CSSC[C@@H](C(=O)N[C@@H](CCCCN)C(=O)O)NC(=O)[C@H](CO)NC(=O)[C@H](CO)NC(=O)[C@H](Cc2ccccc2)NC(=O)[C@H]([C@@H](C)O)NC(=O)[C@H](CCCCN)NC(=O)[C@H](Cc2c[nH]c3ccccc23)NC(=O)[C@H](Cc2ccccc2)NC(=O)[C@H](Cc2ccccc2)NC(=O)[C@H](CC(N)=O)NC(=O)[C@H](CCCNC(=N)N)NC1=O [hCS-17]
